# Measurements published in patent US20240270743A1, “TETRAHYDROPYRAZOLOPYRIDINE-ANALOG LIGANDS OF NLRX1 AND USES THEREOF” (LANDOS BIOPHARMA, INC., priority 2021, published 2024).
# How the values were obtained:
# CD4+ T cells = experiment: Immunological screening in vitro in CD4+ T cells (flow cytometry); assay type: cell-based, C57BL/6 mice; conditions: 100 nanomolar, 24 h, anti-CD3/CD28, PMA and ionomycin last 6 h; for production of TNFα / percentage of TNFα+ CD4+ T cells: relative to vehicle control (FIG. 3A); for production of IFNγ / percentage of IFNγ+ CD4+ T cells: relative to vehicle control (FIG. 3B)
# Description: Cell culture. Spleens were excised from C57BL/6 mice. Spleens were crushed between the frosted ends of microscope slides and filtered to provide a cellular suspension. Red blood cells were lysed through hypotonic lysis. Remaining cells were washed and filtered. CD4+ T cells were enriched within the suspension using magnetic sorting based negative selection. Cells were collected and plated within 96 well plates coated with anti-CD3/CD28 and cultured in the presence of LABP-72-4, LABP-72-38, LABP-72-56, LABP-72-69 at 0 or 100 nanomolar for 24 h. During the last 6 h of culture, cells were stimulated with phorbol 12-myristate-13-acetate (PMA) and ionomycin.
# Immunological analysis. Cells were collected from 96 well plates and stained with a cocktail of antibodies for immunophenotyping by flow cytometry. Culture supernatant was collected and assayed for cytokine concentrations by cytometric bead array. Data was captured on a BD FACS Celesta and analyzed using FACSDiva.
# [1] = test system: bleomycin mouse model of pulmonary fibrosis; experiment: Bleomycin-induced model of pulmonary fibrosis; assay type: in vivo, C57BL/6 mice; conditions: 50 mg/kg once daily oral gavage from day 7, lungs 2 weeks after bleomycin
# Procedure: Bleomycin model. C57BL/6 mice were anesthetized by isoflurane and intratracheally administered 1 mg/kg bleomycin at day 0. LABP-72-38 was prepared within a 0.5% methylcellulose (12-15 cP) solution. Dosage used was 50 mg/kg delivered once daily, by oral gavage beginning 7 days after bleomycin challenge. Lungs were collected 2 weeks after bleomycin challenge.
# Flow Cytometry. Lungs were collected into RPMI/FBS buffer containing collagenase (300U/mL) and DNase (50U/mL) for digestion. Tissues were digested for 45 minutes under stirring at 37° C. Resultant cellular suspensions were filtered through 100 μm strainers, and centrifuged (300× g, 8 min). Red blood cells were lysed from the cellular suspensions. Cells were filtered and washed in fresh RPMI. Cells were labeled with mixtures of extracellular (CD45, CD3, CD4, CD8, CD19, NK1.1, F4/80, CD11b, Gr1) and intracellular (IL21) antibodies in a sequential live staining in 96-well plates. Data was acquired using a FACS Celesta flow cytometer with FACSDiva software.
# [2] = test system: house dust mite model of asthma; experiment: House dust mite (HDM)-induced model of asthma; assay type: in vivo, BALB/c mice; conditions: 20 mg/kg daily intranasal, 3 weeks of house dust mite challenge
# Procedure: HDM-induced model. BALB/c mice were sensitized to house dust mite with 25 μg administered daily by intranasal instillation for five days. Challenge with house dust mite (25 μg/d) occurred for 5 consecutive days for the following three weeks. Treatment with LABP-72-38 (20 mg/kg) or vehicle control occurred daily during this three-week period. An unchallenged negative control group was included for comparison. Immunological analysis. Lungs were collected on day 18 (OVA) or day 27 (HDM). Lung tissue was minced and digested in RPMI supplemented with FBS, HEPES, and calcium chloride containing 300 U/mL collagenase and 50 U/mL DNase for 45 minutes at 37° C. After filtration, red blood cells were lysed. Cells were labeled with mixtures of extracellular (CD45, CD3, CD4, CD8, MHCII, CD11b, CD11c, SiglecF, Ly6C, Ly6G) antibodies in a sequential live staining in 96-well plates in preparation for flow cytometry. Data was captured on a BD FACS Celesta and analyzed using FACSDiva.
# [3] = test system: OVA-induced model of asthma; experiment: OVA-induced model of asthma; assay type: in vivo, BALB/c mice; conditions: 50 mg/kg daily by oral gavage, days 14-17, day 18
# Procedure: OVA-induced model. BALB/c mice were immunized with 10 μg of ovalbumin (OVA) in aluminum hydroxide gel by intraperitoneal injection on day 0 and 7 of the experiment. Mice were then exposed to OVA (8% w/v) by aerosolization for 25 minutes daily between days 14 and 17. Treatment with LABP-72-38 (50 mg/kg) or vehicle control occurred daily between days 14 and 17 by oral gavage. An unchallenged negative control group was included for comparison. Dosage was calculated based off mean body weights. Immunological analysis. Lungs were collected on day 18 (OVA) or day 27 (HDM). Lung tissue was minced and digested in RPMI supplemented with FBS, HEPES, and calcium chloride containing 300 U/mL collagenase and 50 U/mL DNase for 45 minutes at 37° C. After filtration, red blood cells were lysed. Cells were labeled with mixtures of extracellular (CD45, CD3, CD4, CD8, MHCII, CD11b, CD11c, SiglecF, Ly6C, Ly6G) antibodies in a sequential live staining in 96-well plates in preparation for flow cytometry. Data was captured on a BD FACS Celesta and analyzed using FACSDiva.
# [4] = test system: high fat diet induced obesity model; experiment: High fat diet-induced model of obesity; assay type: in vivo, C57BL6 mice; conditions: 10 mg/kg daily oral gavage for 4 weeks
# Procedure: Mouse model. C57BL6 mice were challenged with 16 weeks of high fat feeding by ad libitum exposure to rodent diet chow containing 60% kcal from fat. After 12 weeks of challenge, mice were treated daily with LABP-72-38 at 10 mg/kg for 4 weeks. Treatment was delivered by oral gavage. Mice were weighed weekly. Blood glucose levels were measured by glucometer on blood collected from the tail vein. After 16 weeks of diet, livers were excised and weighed. Weights were normalized to the total body weight.
Compound,production of TNFα / percentage of TNFα+ CD4+ T cells (CD4+ T cells),production of IFNγ / percentage of IFNγ+ CD4+ T cells (CD4+ T cells),proportions of neutrophils in the lungs ([1]; relative to vehicle (FIG. 6A)),proportions of IL21+ cells in the lungs ([1]; relative to vehicle (FIG. 6B)),percentage of eosinophils within the lung ([2]; relative to vehicle control (FIG. 5A)),percentage of neutrophils within the lung ([2]; relative to vehicle control (FIG. 5B)),percentage of eosinophils within the lung ([3]; relative to vehicle control (FIG. 4A)),concentrations of anti-OVA IgE antibodies in the serum ([3]; relative to vehicle control (FIG. 4B)),blood glucose level ([4]; 16 weeks high fat diet (FIG. 7A)),"body weight normalized liver weight ([4]; 16 weeks high fat diet, compared to vehicle (FIG. 7B))"
"O=C(O)Cc1ccc(N2CCc3c(cnn3-c3cc(F)cc(F)c3)C2=O)cn1 [LABP-72-69, 2-(5-(1-(3,5-difluorophenyl)-4-oxo-1,4,6,7-tetrahydro-5H-pyrazolo[4,3-c]pyridin-5-yl)pyridin-2-yl)acetic acid]",significantly reducing,significantly reducing,,,,,,,,
"O=C(O)Cc1cncc(N2CCc3nn(-c4cc(F)cc(F)c4)cc3C2=O)c1 [LABP-72-38, 2-(5-(2-(3,5-difluorophenyl)-4-oxo-2,4,6,7-tetrahydro-5H-pyrazolo[4,3-c]pyridin-5-yl)pyridin-3-yl)acetic acid]",,,decreased,decreased,reduced,reduced,reduced,reducing,reduced,reduced
O=C(O)Cc1cncc(N2CCc3nn(-c4cc(F)cc(F)c4)cc3C2=O)c1 [LABP-72-4],significantly reducing,significantly reducing,,,,,,,,
